# Where a name gives a salt, the structure may show the parent alone. Read-outs that look alike come from different tables or passages of the source.
# T1: human OCT1 (Homo sapiens, UniProt O15245)
# T1 construct: expressed in transfected cells; host or cells: HEK293 (Flp-In system)
# T1 sequence (O15245 1-554): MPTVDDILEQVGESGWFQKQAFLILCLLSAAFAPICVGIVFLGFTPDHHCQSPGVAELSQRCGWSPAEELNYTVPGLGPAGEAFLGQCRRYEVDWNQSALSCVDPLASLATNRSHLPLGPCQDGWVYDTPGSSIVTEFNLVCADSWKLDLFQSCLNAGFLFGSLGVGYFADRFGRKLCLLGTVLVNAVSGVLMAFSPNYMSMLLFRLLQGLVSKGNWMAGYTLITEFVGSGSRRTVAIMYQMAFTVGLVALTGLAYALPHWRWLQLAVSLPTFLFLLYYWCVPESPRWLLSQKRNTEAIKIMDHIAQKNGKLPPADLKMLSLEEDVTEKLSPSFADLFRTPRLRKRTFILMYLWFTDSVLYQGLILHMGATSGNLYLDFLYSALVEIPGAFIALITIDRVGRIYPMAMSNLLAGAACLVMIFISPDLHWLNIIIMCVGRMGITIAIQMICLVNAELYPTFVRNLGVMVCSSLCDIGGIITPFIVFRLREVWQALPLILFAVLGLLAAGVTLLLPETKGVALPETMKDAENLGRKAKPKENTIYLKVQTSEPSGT
# T2: mouse OCT1 (Mus musculus, UniProt O08966)
# T2 construct: expressed in transfected cells; host or cells: HEK293 (Flp-In system)
# T2 sequence (O08966 1-556): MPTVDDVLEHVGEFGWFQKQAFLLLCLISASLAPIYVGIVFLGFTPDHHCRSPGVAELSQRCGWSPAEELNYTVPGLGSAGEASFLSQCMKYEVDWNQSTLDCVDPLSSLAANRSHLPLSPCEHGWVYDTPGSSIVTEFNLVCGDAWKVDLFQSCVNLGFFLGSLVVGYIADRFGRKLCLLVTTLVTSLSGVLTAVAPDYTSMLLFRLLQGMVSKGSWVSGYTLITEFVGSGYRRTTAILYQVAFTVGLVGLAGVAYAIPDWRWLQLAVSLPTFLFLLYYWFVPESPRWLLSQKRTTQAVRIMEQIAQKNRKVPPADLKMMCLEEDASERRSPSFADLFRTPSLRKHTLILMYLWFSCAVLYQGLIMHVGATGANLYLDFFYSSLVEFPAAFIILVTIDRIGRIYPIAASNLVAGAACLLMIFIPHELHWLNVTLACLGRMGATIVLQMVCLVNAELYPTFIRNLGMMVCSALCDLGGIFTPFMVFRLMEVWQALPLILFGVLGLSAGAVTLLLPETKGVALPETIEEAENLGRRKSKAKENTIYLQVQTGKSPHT
# T3: human OCT2 (Homo sapiens, UniProt O15244)
# T3 construct: expressed in transfected cells; host or cells: HEK293 (Flp-In system)
# T3 sequence (O15244 1-555): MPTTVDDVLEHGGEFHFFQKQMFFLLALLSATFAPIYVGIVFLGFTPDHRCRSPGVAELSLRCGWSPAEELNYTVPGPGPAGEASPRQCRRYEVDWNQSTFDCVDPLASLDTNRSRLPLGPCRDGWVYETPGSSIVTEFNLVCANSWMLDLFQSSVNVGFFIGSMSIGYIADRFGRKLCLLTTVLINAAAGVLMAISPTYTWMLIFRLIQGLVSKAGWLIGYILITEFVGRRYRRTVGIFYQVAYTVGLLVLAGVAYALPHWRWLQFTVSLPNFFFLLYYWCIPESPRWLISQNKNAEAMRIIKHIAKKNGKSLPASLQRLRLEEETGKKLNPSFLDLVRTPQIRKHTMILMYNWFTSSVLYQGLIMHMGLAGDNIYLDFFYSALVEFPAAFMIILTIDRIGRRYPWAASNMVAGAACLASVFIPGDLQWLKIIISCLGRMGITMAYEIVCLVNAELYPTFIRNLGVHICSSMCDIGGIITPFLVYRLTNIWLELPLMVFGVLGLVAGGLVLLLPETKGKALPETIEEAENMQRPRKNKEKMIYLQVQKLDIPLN
# Legend:
# [1] = test system: dog OCT1; test: Uptake in HEK293 cells stably overexpressing dog OCT1; settings: for vmax ± SEM, dOCT1: OCT1-mediated uptake, HEK293, 2 min, 37 °C, pH 7.4, control cells subtracted; for Km at 2 min: dog; for CLint ± SEM, dOCT1: intrinsic clearance = vmax divided by KM for each experiment
# Method: The total uptake is shown for the overexpressing and control cells (left hand side). OCT1-mediated uptake (right hand side) was calculated by subtracting the uptake of control cells (pcDNA5) from the uptake of OCT1-overexpressing cells. The means and standard errors of the means are shown for at least three independent experiments.
# For generation and characterization, see the Supplementary Methods, Figure S7, and [29, 47]. Cells were cultured in Dulbecco’s Modified Eagle’s Medium (DMEM) supplemented with 10% FBS, 100 U/mL penicillin, and 100 µg/mL streptomycin at 37 °C and 5% CO2. Cells were passaged twice a week.
# At 48 h prior to the experiment, 6 × 10^5 cells were seeded per well in 12-well plates pre-coated with poly-D-lysine.
# Cellular uptake experiments were performed at 37 °C and pH 7.4 using Hanks’ Buffered Salt Solution (HBSS) supplemented with 10 mM HEPES (referred to as HBSS+ in the following). Cells were washed with 1 mL pre-warmed (37 °C) HBSS+ and uptake was initiated by adding 400 µL of pre-warmed HBSS+ containing the substrate. Uptake was allowed for exactly 2 min and stopped by adding 2 mL ice-cold HBSS+. Cells were washed twice with 2 mL ice-cold HBSS+ then lysed with 80% acetonitrile supplemented with internal standard. The intracellularly accumulated substrate concentrations were measured using LC-MS/MS as described in the following and normalized to the amount of total protein in the samples as measured using the bicinchoninic acid assay.
# Intracellular substrate concentrations were quantified using LC-MS/MS. […] The pellet was reconstituted with 200 µL 0.1% formic acid and between 5 and 10 µL was injected into the LC-MS/MS system (Table S2).
# An API4000 QTRAP tandem mass spectrometer with ESI interface (AB SCIEX, Darmstadt, Germany) coupled to a Shimadzu Nexera X2 UHPLC system with LC 30AD pumps and SiL 30AC autosampler (Shimadzu, Duisburg, Germany) was used for analysis.
# Intrinsic clearance CLint was calculated by dividing vmax by KM for each experiment. Kinetic parameters were compared between OCT1 orthologs using an ANOVA followed by Tukey’s honestly significant difference post hoc comparisons in SPSS Statistics version 28 (SPSS Inc., IBM, Chicago, IL, USA).
# [2] = molecular target: T1, human OCT1; test: Uptake in HEK293 cells stably overexpressing human OCT1; format: in vitro ADME
# Description: (§1) Cells were passaged twice a week.
# (§2) Intracellular substrate concentrations were quantified using LC-MS/MS.
# [3] = molecular target: T2, mouse OCT1; test: Uptake in HEK293 cells stably overexpressing mouse OCT1; format: in vitro ADME; settings: intrinsic clearance = vmax divided by KM for each experiment
# Description: as §1, §2
# [4] = test system: dog OCT2; test: Uptake in HEK293 cells stably overexpressing dog OCT2; format: in vitro ADME; settings: for vmax ± SEM, dOCT2 / Km at 2 min: OCT2-mediated uptake, HEK293, 2 min; for vmax ± SEM, dOCT2: 37 °C, pH 7.4, control cells subtracted; for Km at 2 min: dog, Michaelis–Menten fit, read-out: KM ± SEM, dOCT2; for CLint ± SEM, dOCT2: intrinsic clearance = vmax divided by KM for each experiment
# Description: as §1, §2
# [5] = molecular target: T3, human OCT2; test: Uptake in HEK293 cells stably overexpressing human OCT2; format: in vitro ADME; settings: for CLint ± SEM, hOCT2: intrinsic clearance = vmax divided by KM for each experiment
# Description: as §1, §2
# [6] = substrate: CC(Cc1ccc(O)cc1)NCC(O)c1cc(O)cc(O)c1; test: cells, lysate or membranes named; settings: other: OCT1-mediated uptake, HEK293, 2 min, Michaelis–Menten fit; pH 7.4
# [7] = substrate: CCCC[N+]1(C)[C@@H]2C[C@@H](OC(=O)[C@H](CO)c3ccccc3)C[C@H]1[C@@H]1O[C@@H]12; test: Uptake in HEK293 cells stably overexpressing human OCT1; format: in vitro ADME; settings: other: OCT1-mediated uptake, HEK293, 2 min, Michaelis–Menten fit; pH 7.4
# Method: (§3) Cellular uptake experiments were performed at 37 °C and pH 7.4 using Hanks’ Buffered Salt Solution (HBSS) supplemented with 10 mM HEPES (referred to as HBSS+ in the following). Cells were washed with 1 mL pre-warmed (37 °C) HBSS+ and uptake was initiated by adding 400 µL of pre-warmed HBSS+ containing the substrate. Uptake was allowed for exactly 2 min and stopped by adding 2 mL ice-cold HBSS+. Cells were washed twice with 2 mL ice-cold HBSS+ then lysed with 80% acetonitrile supplemented with internal standard. The intracellularly accumulated substrate concentrations were measured using LC-MS/MS as described in the following and normalized to the amount of total protein in the samples as measured using the bicinchoninic acid assay [49].
# [8] = substrate: O=C(O[C@H]1C[C@H]2CC[C@@H](C1)[N+]21CCCC1)C(O)(c1ccccc1)c1ccccc1; test: as above; format: in vitro ADME; settings: other: OCT1-mediated uptake, HEK293, 2 min, Michaelis–Menten fit; pH 7.4
# Method: as §3
molecule,measurement,setting,value
"CN(C)C(=N)N=C(N)N [Metformin, metformin hydrochloride]","vmax ± SEM, dOCT1",[1],"11,373 ± 714 pmol × min^−1 × mg Protein^−1"
same,Km at 2 min,"[1]; HEK293 cells stably overexpressing dog OCT1, pH 7.4",204 ± 41.8 µM
same,"CLint ± SEM, dOCT1",[1],63.1 ± 12.0 µL × min^−1 × mg Protein^−1
same,"vmax ± SEM, hOCT1","[2]; OCT1-mediated uptake, HEK293, 2 min, 37 °C, pH 7.4, control cells subtracted","10,465 ± 1306 pmol × min^−1 × mg Protein^−1"
same,Km at 2 min,"[2]; human, HEK293 cells stably overexpressing human OCT1, pH 7.4, OCT1-mediated uptake, HEK293, 2 min, Michaelis–Menten fit, read-out: KM ± SEM, hOCT1",1.09 ± 0.297 mM
same,"CLint ± SEM, mOCT1",[3],38.7 ± 6.23 µL × min^−1 × mg Protein^−1
same,"vmax ± SEM, dOCT2",[4],"21,578 ± 606 pmol × min^−1 × mg Protein^−1"
same,Km at 2 min,"[4]; HEK293 cells stably overexpressing dog OCT2, pH 7.4",365 ± 11.5 µM
same,"CLint ± SEM, dOCT2",[4],59.2 ± 2.76 µL × min^−1 × mg Protein^−1
same,"vmax ± SEM, hOCT2","[5]; OCT2-mediated uptake, HEK293, 2 min, 37 °C, pH 7.4, control cells subtracted","29,650 ± 1457 pmol × min^−1 × mg Protein^−1"
same,Km at 2 min,"[5]; human, HEK293 cells stably overexpressing human OCT2, pH 7.4, OCT2-mediated uptake, HEK293, 2 min, Michaelis–Menten fit, read-out: KM ± SEM, hOCT2",766 ± 95.4 µM
same,"CLint ± SEM, hOCT2",[5],39.9 ± 5.27 µL × min^−1 × mg Protein^−1
"O=C(O[C@H]1C[C@H]2CC[C@@H](C1)[N+]21CCCC1)C(O)(c1ccccc1)c1ccccc1 [Trospium, trospium chloride]","vmax ± SEM, dOCT1",[1],835 ± 64.9 pmol × min^−1 × mg Protein^−1
same,fold higher transport capacity by dog than mouse OCT1,[1]; dog OCT1 versus mouse OCT1,3.4 fold
same,fold lower affinity by dog than mouse OCT1,[1]; dog OCT1 versus mouse OCT1,4.4 fold
same,Km at 2 min,[1]; pH 7.4,5.72 ± 0.3 µM
same,"CLint ± SEM, dOCT1",[1],146 ± 10.3 µL × min^−1 × mg Protein^−1
same,"CLint ± SEM, hOCT1",[2]; intrinsic clearance = vmax divided by KM for each experiment,117 ± 12.7 µL × min^−1 × mg Protein^−1
same,"CLint ± SEM, mOCT1",[3],180 ± 37.5 µL × min^−1 × mg Protein^−1
same,"vmax ± SEM, dOCT2",[4],224 ± 14.6 pmol × min^−1 × mg Protein^−1
same,fold lower affinity by dog OCT2 than human OCT2,[4]; dog OCT2 versus human OCT2,5.7 fold
same,Km at 2 min,[4]; pH 7.4,2.18 ± 0.27 µM
same,"CLint ± SEM, dOCT2",[4],106 ± 8.78 µL × min^−1 × mg Protein^−1
same,"CLint ± SEM, hOCT2",[5],278 ± 40.5 µL × min^−1 × mg Protein^−1
"human OCT1 (Homo sapiens) (protein, expressed in transfected cells; host or cells: HEK293 (Flp-In system)) MPTVDDILEQVGESGWFQKQAFLILCLLSAAFAPICVGIVFLGFTPDHHCQSPGVAELSQRCGWSPAEELNYTVPGLGPAGEAFLGQCRRYEVDWNQSALSCVDPLASLATNRSHLPLGPCQDGWVYDTPGSSIVTEFNLVCADSWKLDLFQSCLNAGFLFGSLGVGYFADRFGRKLCLLGTVLVNAVSGVLMAFSPNYMSMLLFRLLQGLVSKGNWMAGYTLITEFVGSGSRRTVAIMYQMAFTVGLVALTGLAYALPHWRWLQLAVSLPTFLFLLYYWCVPESPRWLLSQKRNTEAIKIMDHIAQKNGKLPPADLKMLSLEEDVTEKLSPSFADLFRTPRLRKRTFILMYLWFTDSVLYQGLILHMGATSGNLYLDFLYSALVEIPGAFIALITIDRVGRIYPMAMSNLLAGAACLVMIFISPDLHWLNIIIMCVGRMGITIAIQMICLVNAELYPTFVRNLGVMVCSSLCDIGGIITPFIVFRLREVWQALPLILFAVLGLLAAGVTLLLPETKGVALPETMKDAENLGRKAKPKENTIYLKVQTSEPSGT",Km,[6],1.19 ± 0.09 µM
same,Km,[7],15.0 ± 1.67 µM
same,Vmax,[7],0.00125 µmol/min/mg
same,Vmax/Km,[7],84.4 µL/min/mg
same,Km,[8],13.3 ± 1.58 µM
same,Vmax,[8],0.0015 µmol/min/mg
same,Vmax/Km,[8],117 µL/min/mg
